Measurements taken from patent publication US20100305074A1, “NIACIN-BASED PHARMACEUTICAL COMPOSITIONS” (priority 2007, published 2010).

Key:
[1] = system: patients with niacin-induced pruritis; assay: Treatment of niacin-induced pruritis with an H-1 blocking agent (Example 6); type: in vivo, human; conditions: among the seven successful patients; morning dosing (cetrizine, fexofenadine) or evening dosing (diphenhydramine)
Description: Nine patients with niacin-induced pruritis were treated by recommending an H-1 blocking agent.

[2] = system: patients who developed hyperuricemia while on niacin therapy; assay: Hyperuricemia on niacin therapy controlled with allopurinol (Example 7); conditions: daily dosing 25 to 200 mg to control hyperuricemia
Description: Two females and 15 males were given allopurinol to control the hyperuricemia (daily dosing ranged from 25 to 200 mg).

[3] = system: men with low HDL and coronary artery disease; conditions: in combination with other lipid medications; HATS trial, N Engl J Med 345:1583-1592; cited from earlier work
[4] = system: patients with debilitating flushing on sustained-release niacin therapy; assay: Prevention of flushing in patients on sustained-release niacin therapy (Examples 1 and 3); type: in vivo, human; conditions: thirteen patients initiating sustained-release niacin; Aspirin 81 mg for prevention of flushing

Row | Compound | effect on niacin-induced pruritis [1] | other results
1 | CC(C)(C(=O)O)c1ccc(C(O)CCCN2CCC(C(O)(c3ccccc3)c3ccccc3)CC2)cc1 (stereo not drawn) [fexofenadine] | resolution of pruritis | –
2 | Oc1ncnc2[nH]ncc12 [allopurinol] | – | continuation of niacin therapy [2]: All were able to continue niacin therapy
3 | O=C(O)COCCN1CCN(C(c2ccccc2)c2ccc(Cl)cc2)CC1 (stereo not drawn) [cetrizine] | resolution of pruritis | –
4 | O=C(O)c1cccnc1 [niacin, 3-pyridinecarboxylic acid] | – | lowering of the incidence of cardiovascular events (heart attacks, strokes, and sudden death) [3]: 60-90%
5 | CC(=O)Oc1ccccc1C(=O)O [Aspirin] | – | flushing despite prevention [4]: continued to have debilitating flushing
6 | CN(C)CCOC(c1ccccc1)c1ccccc1 [diphenhydramine] | resolution of pruritis | –
